According to ChEMBL document CHEMBL1152348, “Discovery of 3-aryl-5-aryl-1,2,4-oxadiazoles as a new series of apoptosis inducers. 2. Identification of more aqueous soluble analogs as potential anticancer agents” (Bioorg Med Chem Lett, 2009):
Values after ≈ are worked out from the molar mass of the structure shown. Active and inactive are the calls of the source. No cut-off for these calls is given here.

What was measured:
NCI-H1299 = assay: Induction of apoptosis in human H1299 cells assessed as caspase activation after 48 hrs; type: functional, cell-based; settings: NCI-H1299, 48 h
DLD-1 = assay: Induction of apoptosis in human DLD1 cells assessed as caspase activation after 48 hrs; type: functional, cell-based; settings: DLD-1, 48 h
T47D [1] = assay: Induction of apoptosis in human T47D cells assessed as caspase activation after 48 hrs; type: functional, cell-based
[2] = Growth inhibition of human H1299 cells after 48 hrs; type: functional; settings: NCI-H1299, 48 h
T47D [3] = assay: Growth inhibition of human T47D cells after 48 hrs; type: functional
[4] = Aqueous solubility in dextrose 5% in water; type: physicochemical
[5] = Solubility in ethanol/cremophor EL/D5W solution; type: physicochemical
MX1 = assay: Antitumor activity against human MX1 cells xenografted in Crl:Nu/Nu-nuBR mouse assessed as inhibition of tumor growth at 20 mg/kg, iv daily once for day 1 to 5 and 8 to 12; type: functional, organism-based; parameters: dose 20 mg/kg
Mus musculus = assay: Toxicity in Crl:Nu/Nu-nuBR mouse assessed as decrease of body weight at 20 mg/kg, iv daily once for day 1 to 5 and 8 to 12; type: organism-based; parameters: dose 20 mg/kg, route intravenous; scale not given: the % may be the effect or the level left; settings: in vivo
[6] = Solubility in DMSO/ethanol/cremophor EL/D5W solution; type: physicochemical

Structure (SMILES)	EC50 (NCI-H1299) [nM]	EC50 (DLD-1) [nM]	EC50 (T47D [1]) [nM]	GI50 [2] [nM]	GI50 (T47D [3]) [nM]	further results
Clc1ccc(-c2noc(-c3sccc3Cl)n2)cc1	> 10000	440	1200	> 10000	190	
Cc1cc(Cl)ccc1-c1noc(-c2sccc2Cl)n1	> 10000	380	910			
Clc1ccc(-c2noc(-c3occc3Br)n2)c(CBr)c1	2300		2200			
O=P([O-])([O-])OCc1cc(Cl)ccc1-c1noc(-c2occc2Br)n1.[Na+].[Na+]						solubility [4]: 10000 µg/mL
O=P(O)(O)OCc1cc(Cl)ccc1-c1noc(-c2occc2Br)n1	> 10000		> 10000			
CC[C@]1(O)C[C@@H]2CN(CCc3c([nH]c4ccccc34)[C@@](C(=O)OC)(c3cc4c(cc3OC)N(C)[C@H]3[C@@](O)(C(=O)OC)[C@H](OC(C)=O)[C@]5(CC)C=CCN6CC[C@]43[C@@H]65)C2)C1 [VINBLASTINE]	82	160				
CN(C)c1cc(-c2noc(-c3sccc3Cl)n2)ccc1Cl	> 10000	540	2100			
Nc1cc(-c2noc(-c3sccc3Cl)n2)ccc1Cl	> 10000	580	2400			
Nc1cc(Cl)ccc1-c1noc(-c2sccc2Cl)n1	> 10000	1100	3100			
OCc1cc(Cl)ccc1-c1noc(-c2occc2Br)n1	> 10000		2900	> 10000	500	solubility [5]: 4000 µg/mL (≈ 11.2 mM)
Cc1cc(-c2noc(-c3sccc3Cl)n2)ccc1Cl	> 10000	590	1700			
Clc1ccc(-c2noc(-c3sccc3Cl)n2)c(CBr)c1	8600	1100	4500			
Cc1cc(Cl)ccc1-c1noc(-c2occc2Br)n1	> 10000	710	1100	> 10000	130	inhibition (MX1): Active; Activity (Mus musculus): < 10%; solubility [6]: 4800 µg/mL (≈ 14.1 mM)
Clc1ccc(-c2noc(-c3sccc3Cl)n2)cc1Cl	> 10000	370	1400			
CN(C)CCNc1cc(-c2noc(-c3sccc3Cl)n2)ccc1Cl	> 10000	> 10000	> 10000			
COc1cc2c(c(OC)c1OC)-c1ccc(OC)c(=O)cc1[C@@H](NC(C)=O)CC2 [COLCHICINE]		180		63	140	
CC(=O)O[C@H]1C(=O)[C@@]2(C)[C@H]([C@H](OC(=O)c3ccccc3)[C@]3(O)C[C@H](OC(=O)[C@H](O)[C@@H](NC(=O)c4ccccc4)c4ccccc4)C(C)=C1C3(C)C)[C@]1(OC(C)=O)CO[C@@H]1C[C@@H]2O [PACLITAXEL]	98	54		23	26	
Cc1cc(Cl)cnc1-c1noc(-c2occc2Br)n1	> 10000	1200	940	> 10000	660	solubility [5]: 3800 µg/mL (≈ 11.2 mM)
